{
  "source": "patent US11452758B2",
  "about": "“Antimicrobial peptide derived from LL37 peptide and uses thereof” (INDUSTRY-ACADEMIC COOPERATION FOUNDATION, CHOSUN UNIVERSITY, priority 2018, dated 2022)",
  "key": {"S. typhimurium KCTC 1925": {"system": "S. typhimurium KCTC 1925", "type": "cell-based, Salmonella typhimurium", "conditions": "KCTC 1925, 18 h", "description": "(§1) To compare the antimicrobial activity among the peptides produced by the method of Example 1, the inventors of the present invention measured the minimal growth inhibitory concentration (MIC), which is minimum concentration of the peptide not allowing any […] of bacterial cells.\n(§2) Specifically, the bacterial strains described in the following Table 2 were purchased and cultured to a mid-log phase in MHB (Mueller Hinton Broth) medium. Then, after dilution to bacterial cell concentration of 2×10^5 cells/50 μl, the cells were inoculated to a microtiter plate (NUNC, USA). Thereafter, LL37-1, LL37-2, LL37-3 or LL37-4 peptide which has been synthesized in Example 1 above was subjected to serial dilution, ½ times for each, in a 96-well plate. After adding the peptides in an amount of 50 μl to the cell plate, the cells were cultured for 18 hours at 37° C. By using a microtiter plate reader (Merck Elisa reader, Germany), the absorbance was measured at a wavelength of 600 nm to determine the MIC value of each bacterial strain. As a control group, LL37 as a mother peptide was used and subjected to the same process as above to determine the MIC value of each strain."}, "E. coli ATCC 25922": {"system": "E. coli ATCC 25922", "type": "cell-based, Escherichia coli", "conditions": "ATCC 25922, 18 h", "description": "as §1, §2"}, "[1]": {"assay": "Cytotoxicity in normal cell line (MTT)", "type": "cell-based, human", "conditions": "human", "protocol": "To determine the cytotoxicity of the peptides produced by the method of Example 1 in normal cell line, cytotoxicity was measured by using normal human keratinocyte cell line (HaCaT) and normal human fibroblast cell line (Hs27).\nSpecifically, normal human keratinocyte (HaCaT) cells and normal human fibroblast (Hs27) cells, which have been cultured in DMEM medium containing 10% FBS (fetal bovine serum), were aliquoted in a microtiter plate to have 1×10^4 cells per well. After culturing them for 24 hours, the cells were subjected to a treatment with LL37, LL37-1, LL37-2, LL37-3 or LL37-4 peptide, each at concentration of 0.5, 1, 2, 4, 8, 16 or 32 μM/well, followed by reaction for 24 hours in a 5% CO2 incubator. After culture, a reaction solution containing 5 mg/ml MTT (Thiazolyl Blue Tetrazolium Bromide) dissolved in phosphate buffered saline (PBS) was added in an amount of 10 μl to each well and the reaction was allowed to occur for 1 hour. After that, the supernatant was discarded, and, by dissolving MTT crystals that are formed by adding 200 μl DMSO (dimethyl sulfoxide), the absorbance at 570 nm was measured to determine the cell survival ability."}, "S. aureus ATCC 25923": {"system": "S. aureus ATCC 25923", "type": "cell-based, Staphylococcus aureus", "conditions": "ATCC 25923, 18 h", "description": "as §1, §2"}, "A. baumannii #3": {"system": "A. baumannii #3", "type": "cell-based, Acinetobacter baumannii", "conditions": "#3", "description": "as §1, §2"}, "A. baumannii #19": {"system": "A. baumannii #19", "type": "cell-based, Acinetobacter baumannii", "conditions": "#19", "description": "as §1, §2"}, "A. baumannii #5": {"system": "A. baumannii #5", "type": "cell-based, Acinetobacter baumannii", "conditions": "#5", "description": "as §1, §2"}, "A. baumannii #9": {"system": "A. baumannii #9", "type": "cell-based, Acinetobacter baumannii", "conditions": "#9", "description": "as §1, §2"}, "A. baumannii #8": {"system": "A. baumannii #8", "type": "cell-based, Acinetobacter baumannii", "conditions": "#8", "description": "as §1, §2"}, "A. baumannii #10": {"system": "A. baumannii #10", "type": "cell-based, Acinetobacter baumannii", "conditions": "#10", "description": "as §1, §2"}, "A. baumannii #2": {"system": "A. baumannii #2", "type": "cell-based, Acinetobacter baumannii", "conditions": "#2", "description": "as §1, §2"}, "A. baumannii #13": {"system": "A. baumannii #13", "type": "cell-based, Acinetobacter baumannii", "conditions": "#13", "description": "as §1, §2"}, "A. baumannii #4": {"system": "A. baumannii #4", "type": "cell-based, Acinetobacter baumannii", "conditions": "#4", "description": "as §1, §2"}, "A. baumannii KCTC 2508": {"system": "A. baumannii KCTC 2508", "type": "cell-based, Acinetobacter baumannii", "conditions": "KCTC 2508, 18 h", "description": "as §1, §2"}, "A. baumannii #11": {"system": "A. baumannii #11", "type": "cell-based, Acinetobacter baumannii", "conditions": "#11", "description": "as §1, §2"}, "A. baumannii #12": {"system": "A. baumannii #12", "type": "cell-based, Acinetobacter baumannii", "conditions": "#12", "description": "as §1, §2"}, "P. aeruginosa ATCC 27853": {"system": "P. aeruginosa ATCC 27853", "type": "cell-based, Pseudomonas aeruginosa", "conditions": "ATCC 27853, 18 h", "description": "as §1, §2"}, "[2]": {"system": "L. monocytogenes KCTC 3710", "type": "cell-based, Listeria monocytogenes", "conditions": "KCTC 3710, 18 h", "description": "as §1, §2"}},
  "note": "Where a SMILES comes first, the peptide text is derived from it.",
  "data": [
    {"smiles": "CC[C@H](C)[C@H](NC(=O)[C@H](CCCNC(=N)N)NC(=O)[C@H](CCC(N)=O)NC(=O)[C@@H](NC(=O)[C@@H](NC(=O)[C@H](CCCNC(=N)N)NC(=O)[C@H](CCCCN)NC(=O)[C@H](Cc1ccccc1)NC(=O)[C@H](CCC(=O)O)NC(=O)[C@@H](N)CCCCN)[C@@H](C)CC)C(C)C)C(=O)N[C@@H](CCCCN)C(=O)N[C@@H](CC(=O)O)C(=O)N[C@@H](Cc1ccccc1)C(=O)N[C@@H](CC(C)C)C(=O)N[C@@H](CCCNC(=N)N)C(=O)N[C@@H](CC(N)=O)C(N)=O", "note": "[LL37-1, KEFKRIVQRIKDFLRN-NH2] (H-KEFKRIVQRIKDFLRN-NH2)", "values": [
      {"measurement": "Minimal inhibitory concentration", "setting": "S. typhimurium KCTC 1925", "result": 32, "unit": "µM"},
      {"measurement": "Minimal inhibitory concentration", "setting": "E. coli ATCC 25922", "result": 128, "unit": "µM"},
      {"measurement": "viability at 24 h, 0.5 µM", "setting": "[1]; HaCaT keratinocyte cells", "result": 97, "unit": "%"},
      {"measurement": "viability at 24 h, 1 µM", "setting": "[1]; HaCaT keratinocyte cells", "result": 103, "unit": "%"},
      {"measurement": "viability at 24 h, 2 µM", "setting": "[1]; HaCaT keratinocyte cells", "result": 98, "unit": "%"},
      {"measurement": "viability at 24 h, 4 µM", "setting": "[1]; HaCaT keratinocyte cells", "result": 99, "unit": "%"},
      {"measurement": "viability at 24 h, 8 µM", "setting": "[1]; HaCaT keratinocyte cells", "result": 103, "unit": "%"},
      {"measurement": "viability at 24 h, 16 µM", "setting": "[1]; HaCaT keratinocyte cells", "result": 101, "unit": "%"},
      {"measurement": "viability at 24 h, 32 µM", "setting": "[1]; HaCaT keratinocyte cells", "result": 104, "unit": "%"},
      {"measurement": "viability at 24 h, 0.5 µM", "setting": "[1]; Hs27 fibroblast cells", "result": 100, "unit": "%"},
      {"measurement": "viability at 24 h, 1 µM", "setting": "[1]; Hs27 fibroblast cells", "result": 100, "unit": "%"},
      {"measurement": "viability at 24 h, 2 µM", "setting": "[1]; Hs27 fibroblast cells", "result": 103, "unit": "%"},
      {"measurement": "viability at 24 h, 4 µM", "setting": "[1]; Hs27 fibroblast cells", "result": 95, "unit": "%"},
      {"measurement": "viability at 24 h, 8 µM", "setting": "[1]; Hs27 fibroblast cells", "result": 96, "unit": "%"},
      {"measurement": "viability at 24 h, 16 µM", "setting": "[1]; Hs27 fibroblast cells", "result": 92, "unit": "%"},
      {"measurement": "viability at 24 h, 32 µM", "setting": "[1]; Hs27 fibroblast cells", "result": 95, "unit": "%"},
      {"measurement": "Minimal inhibitory concentration", "setting": "S. aureus ATCC 25923", "result": 32, "unit": "µM"},
      {"measurement": "Minimal inhibitory concentration", "setting": "A. baumannii #3", "result": 8, "unit": "µM"},
      {"measurement": "Minimal inhibitory concentration", "setting": "A. baumannii #19", "result": 8, "unit": "µM"},
      {"measurement": "Minimal inhibitory concentration", "setting": "A. baumannii #5", "result": 4, "unit": "µM"},
      {"measurement": "Minimal inhibitory concentration", "setting": "A. baumannii #9", "result": 4, "unit": "µM"},
      {"measurement": "Minimal inhibitory concentration", "setting": "A. baumannii #8", "result": 4, "unit": "µM"},
      {"measurement": "Minimal inhibitory concentration", "setting": "A. baumannii #10", "result": 4, "unit": "µM"},
      {"measurement": "Minimal inhibitory concentration", "setting": "A. baumannii #2", "result": 4, "unit": "µM"},
      {"measurement": "Minimal inhibitory concentration", "setting": "A. baumannii #13", "result": 4, "unit": "µM"},
      {"measurement": "Minimal inhibitory concentration", "setting": "A. baumannii #4", "result": 8, "unit": "µM"},
      {"measurement": "Minimal inhibitory concentration", "setting": "A. baumannii KCTC 2508", "result": 16, "unit": "µM"},
      {"measurement": "Minimal inhibitory concentration", "setting": "A. baumannii #11", "result": 4, "unit": "µM"},
      {"measurement": "Minimal inhibitory concentration", "setting": "A. baumannii #12", "result": 8, "unit": "µM"},
      {"measurement": "Minimal inhibitory concentration", "setting": "P. aeruginosa ATCC 27853", "result": 16, "unit": "µM"},
      {"measurement": "Minimal inhibitory concentration", "setting": "[2]", "result": 128, "unit": "µM"}
    ]}
  ]
}
